In ChEMBL document CHEMBL1201862, “PubChem BioAssay data set” (2004):
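Exposure lasted 48 hours, with cells grown in 96-well plates and compounds tested at five concentrations. At the GI50, growth is halved.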 Active and inactive are the calls of the source. Cut-off read from the data, not from the text of the source: active = GI50 up to about 1.1 µM and inactive = higher.

Assays:
Assay in all cases: DTP human tumour cell line panel, 48 h
CCRF-CEM = tested on: CCRF-CEM
DMS-273 = tested on: DMS-273
HCT-116 = tested on: HCT-116
K562 = tested on: K562
KM12 = tested on: KM12
M14 = tested on: M14
NCI/ADR-RES = tested on: NCI/ADR-RES
OVCAR-3 = tested on: OVCAR-3
OVCAR-4 = tested on: OVCAR-4
RXF 393 = tested on: RXF 393
SF-268 = tested on: SF-268
SF-295 = tested on: SF-295
SK-MEL-2 = tested on: SK-MEL-2
SNB-19 = tested on: SNB-19
SW-620 = tested on: SW-620
BT-549 = tested on: BT-549
MDA-MB-231 = tested on: MDA-MB-231
MDA-N = tested on: MDA-N
PC-3 = tested on: PC-3
T47D = tested on: T47D

Structure (SMILES)	GI50 (CCRF-CEM)	GI50 (DMS-273)	GI50 (HCT-116)	GI50 (K562)	GI50 (KM12)	GI50 (M14)	GI50 (NCI/ADR-RES)	GI50 (OVCAR-3)	GI50 (OVCAR-4)	GI50 (RXF 393)	GI50 (SF-268)	GI50 (SF-295)	GI50 (SK-MEL-2)	GI50 (SNB-19)	GI50 (SW-620)	GI50 (BT-549)	GI50 (MDA-MB-231)	GI50 (MDA-N)	GI50 (PC-3)	GI50 (T47D)
CCOC(=O)COc1ccccc1/C=C1\CCC(CN(C)C)C1=O (centres undefined)	1.1 µM (active)	2.91 µM (inactive)	3.4 µM (inactive)	1.49 µM (inactive)	3.71 µM (inactive)	8.71 µM (inactive)	3.48 µM (inactive)	7.82 µM (inactive)	16.5 µM (inactive)	2.93 µM (inactive)	5.45 µM (inactive)	16.1 µM (inactive)	10.6 µM (inactive)	9.2 µM (inactive)	2.55 µM (inactive)					
CCOc1ccc(NC2=CC(=O)C(=O)c3ccccc32)cc1	9.48 µM (inactive)	2.88 µM (inactive)	3.35 µM (inactive)	5.07 µM (inactive)	3.77 µM (inactive)	1.75 µM (inactive)	2.83 µM (inactive)	2.86 µM (inactive)	3.48 µM (inactive)	5.87 µM (inactive)	6.25 µM (inactive)	2.61 µM (inactive)	4.31 µM (inactive)	2.94 µM (inactive)	1.82 µM (inactive)	1.66 µM (inactive)	12.1 µM (inactive)	2.05 µM (inactive)	3.12 µM (inactive)	8.79 µM (inactive)
CN(C)CC1(Cc2ccccc2)CCC(Cc2ccccc2)C1=O (centres undefined)	2.79 µM (inactive)	10.5 µM (inactive)	11.1 µM (inactive)	2.79 µM (inactive)	8.36 µM (inactive)	10.1 µM (inactive)	9.68 µM (inactive)	6.95 µM (inactive)	16.3 µM (inactive)	13.9 µM (inactive)	14.8 µM (inactive)	16.6 µM (inactive)	12.2 µM (inactive)	16 µM (inactive)	3.67 µM (inactive)	8.95 µM (inactive)	11.2 µM (inactive)	11 µM (inactive)	10.1 µM (inactive)	8.61 µM (inactive)
O=C1C=C(Nc2ccccc2C(=O)CC(=O)C(=O)Nc2cccc(C(F)(F)F)c2)c2ccccc2C1=O	4.37 µM (inactive)	21.5 µM (inactive)	23 µM (inactive)	8.32 µM (inactive)	24 µM (inactive)	16.6 µM (inactive)	13.5 µM (inactive)	6.35 µM (inactive)	17.9 µM (inactive)	20.8 µM (inactive)	17.2 µM (inactive)	21.3 µM (inactive)	16.8 µM (inactive)	54.3 µM (inactive)	27.6 µM (inactive)	8.93 µM (inactive)	20 µM (inactive)	12.6 µM (inactive)	17.9 µM (inactive)	> 100 µM (inactive)
CN(C)CCNC(=O)c1ccc(Cl)c2c(Nc3ccc(S(=O)(=O)N=C(N)N)cc3)c3ccccc3nc12	1.69 µM (inactive)	1.79 µM (inactive)	3.9 µM (inactive)	2.77 µM (inactive)	4.21 µM (inactive)	7.38 µM (inactive)		12.4 µM (inactive)	1.87 µM (inactive)	4.66 µM (inactive)	3.48 µM (inactive)	3.16 µM (inactive)	9.75 µM (inactive)	1.85 µM (inactive)	1.73 µM (inactive)					
